“Also recorded” adds a separate entry of the source.
Assays:
[1] = test system: 2N4R-tau and tau-K18 auto-acetylation activity; assay: Tau acetyltransferase inhibition studies (pre-incubation with cysteine blocking agents, tubulin or microtubules); format: biochemical; settings: pre-incubated with 0.5 mM NEM or 4 mM IA
Protocol: FIG. 14, comprising FIGS. 14a-14c, is a series of images depicting the results of experiments showing that cysteine blocking agents inhibit tau-mediated acetyltransferase activity. […] FIG. 14c is an image showing bovine brain derived microtubule associated protein (MAP-rich) fractions containing all CNS tau isoforms that were evaluated in acetyltransferase assays in the presence of increased tubulin concentrations followed by immunoblotting with Ac-K280 and total tau (T46) antibodies.
Acetyltransferase assays using purified tau proteins were performed as previously described and subjected to autoradiography or immunoblotting using the following anti-tau antibodies: anti-tau polyclonal (Dako, A0024, 1:10,000), anti-acetyl lysine (Cell Signaling, #9441, 1:1000), anti-tau monoclonal (T46, 1:1000), anti-mouse tau (T49, 1:1000), anti-acetylated tau (Ac-K280, 1:1000), anti-acetylated tau (Ac-K369, 1:1000). For tau acetyltransferase inhibition studies, tau proteins were pre-incubated with 0.5 mM N-ethyl-maleimide (NEM), 4 mM iodoacetamide (IA), or increasing concentrations of either tubulin (5-10 μM) or pre-formed microtubules (5 μM). […] Reaction products were readily distinguished between 2N4R-tau (Mr ˜65 kD) and tau-K18 (Mr ˜15 kD) by immunoblotting using acetylated tau (Ac-K280) and total tau (E10) antibodies. […]

[2] = test system: HDAC6; assay: HDAC6 siRNA in HEK-T40 cells, immunoblotting; format: cell-based, human
Protocol: FIG. 7, comprising FIG. 7A through FIG. 7D, depicts the results of experiments which illustrate the characterization of the ac-K280 site-specific acetylated tau antibody. FIG. 7A illustrates the results of an experiment where recombinant WT-K18 or ΔK280-K18 proteins (1 μg) were incubated in the presence or absence of acetyl-CoA or CBP as indicated and K280 acetylation was determined by immunoblotting using anti-ac-K280 and a polyclonal antibody raised to exon 10 of tau protein (E10). FIG. 7B illustrates the results of an experiment where QBI-293 cells were co-transfected with WT-T40 tau or ΔK280-T40 mutant tau expression plasmids along with CBP to promote tau acetylation. 1, 2, and 5 μg total cell lysates were analyzed by western blotting using anti-ac-K280, total tau (T46), and GAPDH antibodies. […] Scale bar represents 50 μm. FIG. 7D illustrates the results of an experiment where control or HDAC6 siRNA expressing HEK-T40 cells were analyzed by immunoblotting using ac-K280, total tau, HDAC6, and GAPDH antibodies.
The longest human tau isoform (designated Tau-T40) was cloned into pCDNA5/TO vector (Invitrogen) and site-directed mutagenesis (Quikchange kit; Stratagene) was used to create K→Q or K→R mutations at residues K163, K280, K281, K369 as indicated. Indicated plasmids were transfected into either QBI-293 cells or stably expressing HEK-T40 cells using Fugene (Roche). […]

[3] = biological target: T1, tau-K18 acetyltransferase activity (auto-acetylation) (Homo sapiens, UniProt P10636); assay: Tau auto-acetylation filter binding assay, kinetic analysis; format: biochemical
T1 construct: made in house
Protocol: (§1) Reactions were assembled in 50 μl of reaction buffer containing 50 mM Tris pH 8.0, 100 μM EDTA, and 10% glycerol. Unless specifically noted, reactions contained 25 μM of either WT tau-K18 or tau-K18-2CA mutant. The reactions were initiated by the addition of [^3H]-acetyl-CoA (2.35 Ci mmol^−1, Perkin Elmer) at concentrations ranging from 2.5 μM to 1 mM, incubated at 37° C., and allowed to proceed for 1 hr (unless otherwise noted). Reactions were stopped by the addition of 10 μl of 3 mM CoA, and 25 μl of the reaction was then spotted to a P81 filter paper (Whatman), washed in 10 mM HEPES pH 7.5 three times, and dried using acetone. Incorporated [^3H]-acetyl-CoA was then measured using the Perkin Elmer Tri-Carb 2800TR Liquid Scintillation Analyzer, and the molar amount of acetyl groups incorporated into tau were calculated from a standard curve of the radiolabeled acetyl-CoA.

[4] = test system: tau-K18 acetyltransferase activity (auto-acetylation); assay: as above; format: biochemical; settings: tau-K18 proteins containing sequential deletions
Protocol: as §1

[5] = test system: tubulin; assay: MT assembly light-scattering assay; format: biochemical; settings: 30 μM tubulin, 40 μM tau proteins, 2 mM GTP
Protocol: (§2) Recombinant full-length T40, 4R-tau MT-binding domain K18, or tau fibrils were acetylated by incubation with [^14C]-labeled acetyl-CoA in the presence or absence of CBP. FIG. 1A illustrates that the reaction products were analyzed by SDS-PAGE and Coomassie blue staining followed by overnight radiographic exposure using STORM phosphor-imager software. FIG. 1B depicts the results of an experiment where T40 or K18 proteins were incubated with acetyl-CoA and/or recombinant CBP and reaction products were subjected to immunoblot analysis using a polyclonal anti-tau-specific antibody for MT repeat domain (E10) and an anti-acetyl-lysine antibody. FIG. 1C is a graph depicting the MT assembly activities of K18 proteins as evaluated in light-scattering assays. Tubulin monomers (30 μM) were mixed with 40 μM tau proteins in MT assembly buffer supplemented with 2 mM guanosine triphosphate. MT assembly was determined by monitoring absorbance every minute at 350 nm using a SpectraMax plate reader. […] FIG. 1D is a graph illustrating the results of experiments where Tau proteins (10 μM) were evaluated in fibrillization reactions using 10 μM heparin to induce assembly. […] Samples were analysed by SDS-PAGE and Coomassie staining to monitor fibril formation. FIG. 1F illustrates the results of experiments where four-hour time points from fibrillization reactions were analysed by negative-staining EM. […]

[6] = Heparin-induced tau fibrillization assay quantified by Thioflavin-T binding; format: biochemical; settings: 10 μM tau proteins, 10 μM heparin, 4-h incubation
Protocol: as §2
Tau K18 protein was either mock acetylated or acetylated in vitro using acetyl-CoA substrate as indicated elsewhere herein. […] Protein concentrations were determined using the bicinchoninic acid protein assay (Pierce) with bovine serum albumin as the standard. Acetylated K18 and mock-treated K18 were assessed by a light-scattering assay as described elsewhere herein. […] The extent of fibrillization was assessed at different time points by ThT fluorescence assay, sedimentation analysis and negative staining EM as described elsewhere herein. For ThT fluorescence assay, ThT diluted in 100 mM glycine buffer (pH 8.5) was added and fluorometric readings were taken at 450 nm (excitation) and 510 nm (emission). […]

[7] = test system: K18-PL acetylation in QBI-293 cells; assay: Cell-based K18-PL acetylation assay in QBI-293 cells; settings: C646 to block CBP/p300, 3MA-induced acetylation, overnight

T1 sequence (P10636 561-689 limits assumed): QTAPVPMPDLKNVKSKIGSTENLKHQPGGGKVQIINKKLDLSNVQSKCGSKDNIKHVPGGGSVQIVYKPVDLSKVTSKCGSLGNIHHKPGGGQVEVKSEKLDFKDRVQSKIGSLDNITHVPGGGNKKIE

NC(=O)CI [iodoacetamide]
2N4R-tau or tau-K18 auto-acetylation activity after pretreatment [1]: abrogation of 2N4R-tau or tau-K18 auto-acetylation activity; also recorded: minimal acetyltransferase activity

CCN1C(=O)C=CC1=O [N-ethyl-maleimide]
2N4R-tau or tau-K18 auto-acetylation activity after pretreatment [1]: abrogation of 2N4R-tau or tau-K18 auto-acetylation activity; also recorded: minimal acetyltransferase activity

HDAC6 small interfering RNA: HDAC6 siRNA (Invitrogen) 5′-AAAGUUGGAACUCUCACGGUGCAGC-3′ (SEQ ID NO: 1) (listed as RNA, chemistry not given here)
levels of ac-K280 [2]: increased levels of ac-K280

tau-K18: recombinant tau fragment encompassing all four MT-binding repeats
Kcat [auto] ([3]; auto-acetylation, this study): 8.3e-05 s⁻¹ | Km ([3]; auto-acetylation, this study, read-out: Km AcCoA [auto]): 147 µM | turnover rate Kcat ([3]; saturation plot against acetyl-CoA concentration): 8.3e-05 s⁻¹ | Km [4]: 147 µM | MT assembly (absorbance at 350 nm) [5]: promoted tubulin assembly into MTs | fibrillization (ThT) [6]: did not fibrillize during the 4-h incubation period

CC1=NN(c2ccc(C(=O)O)cc2)C(=O)/C1=C\c1ccc(-c2cc(C)c(C)cc2[N+](=O)[O-])o1 [C646]
K18-PL acetylation levels [7]: no effect on K18-PL acetylation levels

— patent US20130251731A1, “Tau Acetylation in the Pathogenesis of Alzheimers Disease and Other Related Tauopathies” (THE TRUSTEES OF THE UNIVERSITY OF PENNSYLVANIA, priority 2012, published 2013)
